One experiment concerns the target PAICS (Homo sapiens, UniProt P22234).
For the next experiment, the system named is oncogene myc. The note with it: Western Blot, FIG. 4.
Experiment [1] has as its system lung cancer cell strain A549. Description: cells. As to conditions: Homo sapiens, A549, 48 h.
In experiment [2] the test system is lung cancer cell strain H1299. Description: cells. The note with it: Homo sapiens, NCI-H1299, 48 h.
In experiment [3] the test system is breast cancer cell strain MD468. The experiment can be described thus: cells. As to conditions: 48 h.
The test system of experiment [4] is breast cancer cell strain MD231. The experiment can be described thus: cells. The note with it: 48 h.

As usually defined, the IC50 is the concentration that gives 50% inhibition.

PAICS, sequence (P22234 whole entry): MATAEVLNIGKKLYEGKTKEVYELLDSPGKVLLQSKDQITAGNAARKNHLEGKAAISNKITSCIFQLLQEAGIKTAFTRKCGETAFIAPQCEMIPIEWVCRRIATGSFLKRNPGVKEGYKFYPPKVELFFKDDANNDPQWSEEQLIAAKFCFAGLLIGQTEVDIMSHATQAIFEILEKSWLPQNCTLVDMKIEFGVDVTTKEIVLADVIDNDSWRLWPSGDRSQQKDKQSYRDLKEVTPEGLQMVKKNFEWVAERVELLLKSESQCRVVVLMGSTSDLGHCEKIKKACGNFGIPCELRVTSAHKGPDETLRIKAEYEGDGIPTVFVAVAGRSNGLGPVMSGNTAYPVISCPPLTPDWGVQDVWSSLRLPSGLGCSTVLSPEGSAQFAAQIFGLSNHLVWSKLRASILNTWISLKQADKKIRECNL

Consider `NCCCNCCCCNCCCN` [spermine], for which the “inhibition of the accumulation of SAICAR” value against PAICS is “up to 71.1%”. Besides, the “expression of oncogene myc” value in the experiment on oncogene myc is “significantly down-regulated”. Moreover, the half-maximal inhibitory concentration (IC50) in experiment [1] was 117 µM; in experiment [2], 25.2 µM; in experiment [3], 38 µM; in experiment [4] it was 3.55 µM.

Source of the values: patent US11684593B2 (GENEHEAL BIOTECHNOLOGY CO., LTD., priority 2017, dated 2023).
